#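 Compound exposure: 48 hours, 5 concentrations, 96-well plates. At the TGI there is no net growth.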
# Key:
# Assay in all cases: NCI anticancer screen, dose series, 48 h
# 786-0 renal = test system: 786-0 renal
# A498 renal = test system: A498 renal
# A549 NSCLC = test system: A549 NSCLC
# ACHN renal = test system: ACHN renal
# CAKI-1 renal = test system: CAKI-1 renal
# CCRF-CEM leukemia = test system: CCRF-CEM leukemia
# COLO 205 colon = test system: COLO 205 colon
# EKVX NSCLC = test system: EKVX NSCLC
# HCC-2998 colon = test system: HCC-2998 colon
# HCT-116 colon = test system: HCT-116 colon
# HCT-15 colon = test system: HCT-15 colon
# HL-60(TB) leukemia = test system: HL-60(TB) leukemia
# HOP-62 NSCLC = test system: HOP-62 NSCLC
# HOP-92 NSCLC = test system: HOP-92 NSCLC
# HS 578T breast = test system: HS 578T breast
# HT29 colon = test system: HT29 colon
# IGROV1 ovarian = test system: IGROV1 ovarian
# K-562 leukemia = test system: K-562 leukemia
# KM12 colon = test system: KM12 colon
# LOX IMVI melanoma = test system: LOX IMVI melanoma
# M14 melanoma = test system: M14 melanoma
# MALME-3M melanoma = test system: MALME-3M melanoma
# MCF7 breast = test system: MCF7 breast
# MDA-MB-231 breast = test system: MDA-MB-231 breast
# MDA-MB-435 = test system: MDA-MB-435
# MDA-N = test system: MDA-N
# MOLT-4 leukemia = test system: MOLT-4 leukemia
# NCI-H226 lung = test system: NCI-H226 lung
# NCI-H23 lung = test system: NCI-H23 lung
# NCI-H460 lung = test system: NCI-H460 lung
# NCI-H522 lung = test system: NCI-H522 lung
# NCI/ADR-RES ovarian = test system: NCI/ADR-RES ovarian
# OVCAR-3 ovarian = test system: OVCAR-3 ovarian
# OVCAR-4 ovarian = test system: OVCAR-4 ovarian
# OVCAR-5 ovarian = test system: OVCAR-5 ovarian
# OVCAR-8 ovarian = test system: OVCAR-8 ovarian
# PC-3 prostate = test system: PC-3 prostate
# RPMI-8226 leukemia = test system: RPMI-8226 leukemia
# RXF 393 renal = test system: RXF 393 renal
# SF-268 CNS = test system: SF-268 CNS
# SF-295 CNS = test system: SF-295 CNS
# SF-539 CNS = test system: SF-539 CNS
# SK-MEL-2 melanoma = test system: SK-MEL-2 melanoma
# SK-MEL-28 melanoma = test system: SK-MEL-28 melanoma
# SK-MEL-5 melanoma = test system: SK-MEL-5 melanoma
# SK-OV-3 ovarian = test system: SK-OV-3 ovarian
# SN12C renal = test system: SN12C renal
# SNB-19 CNS = test system: SNB-19 CNS
# SNB-75 CNS = test system: SNB-75 CNS
# SW-620 colon = test system: SW-620 colon
# TK-10 renal = test system: TK-10 renal
# U251 CNS = test system: U251 CNS
# UACC-257 melanoma = test system: UACC-257 melanoma
# UO-31 renal = test system: UO-31 renal
# BT-549 breast = test system: BT-549 breast
# DU-145 prostate = test system: DU-145 prostate
# SR leukemia = test system: SR leukemia
# T-47D breast = test system: T-47D breast
# UACC-62 melanoma = test system: UACC-62 melanoma
structure (smiles),measurement,setting,value
CN(C)CCCNC(=O)CCNC(=O)c1cc(NC(=O)c2cc(NC(=O)c3cc(NC(=O)CCCNC(=O)c4cc(NC(=O)c5cc(NC(=O)c6nccn6C)cn5C)cn4C)cn3C)cn2C)cn1C,TGI,786-0 renal,> 100 µM
same,TGI,A498 renal,> 100 µM
same,TGI,A549 NSCLC,> 100 µM
same,TGI,ACHN renal,> 100 µM
same,TGI,CAKI-1 renal,> 100 µM
same,TGI,CCRF-CEM leukemia,> 100 µM
same,TGI,COLO 205 colon,> 100 µM
same,TGI,EKVX NSCLC,> 100 µM
same,TGI,HCC-2998 colon,> 100 µM
same,TGI,HCT-116 colon,> 100 µM
same,TGI,HCT-15 colon,> 100 µM
same,TGI,HL-60(TB) leukemia,> 100 µM
same,TGI,HOP-62 NSCLC,> 100 µM
same,TGI,HOP-92 NSCLC,> 100 µM
same,TGI,HS 578T breast,> 100 µM
same,TGI,HT29 colon,> 100 µM
same,TGI,IGROV1 ovarian,> 100 µM
same,TGI,K-562 leukemia,> 100 µM
same,TGI,KM12 colon,> 100 µM
same,TGI,LOX IMVI melanoma,> 100 µM
same,TGI,M14 melanoma,> 100 µM
same,TGI,MALME-3M melanoma,> 100 µM
same,TGI,MCF7 breast,> 100 µM
same,TGI,MDA-MB-231 breast,> 100 µM
same,TGI,MDA-MB-435,> 100 µM
same,TGI,MDA-N,> 100 µM
same,TGI,MOLT-4 leukemia,> 100 µM
same,TGI,NCI-H226 lung,> 100 µM
same,TGI,NCI-H23 lung,> 100 µM
same,TGI,NCI-H460 lung,> 100 µM
same,TGI,NCI-H522 lung,> 100 µM
same,TGI,NCI/ADR-RES ovarian,> 100 µM
same,TGI,OVCAR-3 ovarian,> 100 µM
same,TGI,OVCAR-4 ovarian,> 100 µM
same,TGI,OVCAR-5 ovarian,> 100 µM
same,TGI,OVCAR-8 ovarian,> 100 µM
same,TGI,PC-3 prostate,> 100 µM
same,TGI,RPMI-8226 leukemia,> 100 µM
same,TGI,RXF 393 renal,> 100 µM
same,TGI,SF-268 CNS,> 100 µM
same,TGI,SF-295 CNS,> 100 µM
same,TGI,SF-539 CNS,> 100 µM
same,TGI,SK-MEL-2 melanoma,> 100 µM
same,TGI,SK-MEL-28 melanoma,> 100 µM
same,TGI,SK-MEL-5 melanoma,> 100 µM
same,TGI,SK-OV-3 ovarian,> 100 µM
same,TGI,SN12C renal,> 100 µM
same,TGI,SNB-19 CNS,> 100 µM
same,TGI,SNB-75 CNS,> 100 µM
same,TGI,SW-620 colon,> 100 µM
same,TGI,TK-10 renal,> 100 µM
same,TGI,U251 CNS,> 100 µM
same,TGI,UACC-257 melanoma,> 100 µM
same,TGI,UO-31 renal,> 100 µM
CCN(CC)CCCNc1nc2ccccc2[n+]([O-])n1,TGI,786-0 renal,> 100 µM
same,TGI,A498 renal,> 100 µM
same,TGI,A549 NSCLC,> 100 µM
same,TGI,ACHN renal,> 100 µM
same,TGI,BT-549 breast,> 100 µM
same,TGI,CAKI-1 renal,> 100 µM
same,TGI,CCRF-CEM leukemia,> 100 µM
same,TGI,COLO 205 colon,> 100 µM
same,TGI,DU-145 prostate,> 100 µM
same,TGI,HCC-2998 colon,> 100 µM
same,TGI,HCT-116 colon,> 100 µM
same,TGI,HCT-15 colon,> 100 µM
same,TGI,HL-60(TB) leukemia,> 100 µM
same,TGI,HOP-92 NSCLC,> 100 µM
same,TGI,HT29 colon,> 100 µM
same,TGI,IGROV1 ovarian,> 100 µM
same,TGI,K-562 leukemia,> 100 µM
same,TGI,KM12 colon,> 100 µM
same,TGI,M14 melanoma,> 100 µM
same,TGI,MALME-3M melanoma,> 100 µM
same,TGI,MCF7 breast,> 100 µM
same,TGI,MDA-MB-231 breast,> 100 µM
same,TGI,MDA-MB-435,> 100 µM
same,TGI,MDA-N,> 100 µM
same,TGI,MOLT-4 leukemia,> 100 µM
same,TGI,NCI-H226 lung,> 100 µM
same,TGI,NCI-H23 lung,> 100 µM
same,TGI,NCI-H460 lung,> 100 µM
same,TGI,NCI-H522 lung,> 100 µM
same,TGI,NCI/ADR-RES ovarian,> 100 µM
same,TGI,OVCAR-3 ovarian,> 100 µM
same,TGI,OVCAR-4 ovarian,> 100 µM
same,TGI,OVCAR-5 ovarian,> 100 µM
same,TGI,OVCAR-8 ovarian,> 100 µM
same,TGI,PC-3 prostate,> 100 µM
same,TGI,RPMI-8226 leukemia,> 100 µM
same,TGI,RXF 393 renal,> 100 µM
same,TGI,SF-268 CNS,> 100 µM
same,TGI,SF-295 CNS,> 100 µM
same,TGI,SF-539 CNS,> 100 µM
same,TGI,SK-MEL-2 melanoma,> 100 µM
same,TGI,SK-MEL-28 melanoma,> 100 µM
same,TGI,SK-MEL-5 melanoma,> 100 µM
same,TGI,SN12C renal,> 100 µM
same,TGI,SNB-19 CNS,> 100 µM
same,TGI,SNB-75 CNS,> 100 µM
same,TGI,SR leukemia,> 100 µM
same,TGI,SW-620 colon,> 100 µM
same,TGI,T-47D breast,> 100 µM
same,TGI,TK-10 renal,> 100 µM
same,TGI,U251 CNS,> 100 µM
same,TGI,UACC-257 melanoma,> 100 µM
same,TGI,UACC-62 melanoma,> 100 µM
same,TGI,UO-31 renal,> 100 µM
O=C1/C(=C/c2ccc3c(c2)CCC3)Cc2cc3c(cc21)CCC3,TGI,A498 renal,> 100 µM
same,TGI,A549 NSCLC,> 100 µM
same,TGI,ACHN renal,> 100 µM
same,TGI,BT-549 breast,> 100 µM
same,TGI,CCRF-CEM leukemia,> 100 µM
same,TGI,COLO 205 colon,> 100 µM
same,TGI,DU-145 prostate,> 100 µM
same,TGI,EKVX NSCLC,> 100 µM
same,TGI,HCC-2998 colon,> 100 µM
same,TGI,HCT-116 colon,> 100 µM
same,TGI,HCT-15 colon,> 100 µM
same,TGI,HL-60(TB) leukemia,> 100 µM
same,TGI,HOP-62 NSCLC,> 100 µM
same,TGI,HOP-92 NSCLC,97.6 µM
same,TGI,HT29 colon,> 100 µM
same,TGI,IGROV1 ovarian,> 100 µM
same,TGI,K-562 leukemia,> 100 µM
same,TGI,KM12 colon,> 100 µM
same,TGI,LOX IMVI melanoma,> 100 µM
same,TGI,M14 melanoma,> 100 µM
same,TGI,MALME-3M melanoma,> 100 µM
same,TGI,MCF7 breast,> 100 µM
same,TGI,MDA-MB-231 breast,> 100 µM
same,TGI,MDA-MB-435,> 100 µM
same,TGI,MDA-N,> 100 µM
same,TGI,MOLT-4 leukemia,> 100 µM
same,TGI,NCI-H226 lung,> 100 µM
same,TGI,NCI-H23 lung,> 100 µM
same,TGI,NCI-H460 lung,> 100 µM
same,TGI,NCI-H522 lung,> 100 µM
same,TGI,NCI/ADR-RES ovarian,> 100 µM
same,TGI,OVCAR-3 ovarian,> 100 µM
same,TGI,OVCAR-4 ovarian,> 100 µM
same,TGI,OVCAR-5 ovarian,> 100 µM
same,TGI,OVCAR-8 ovarian,> 100 µM
same,TGI,PC-3 prostate,> 100 µM
same,TGI,RPMI-8226 leukemia,> 100 µM
same,TGI,RXF 393 renal,> 100 µM
same,TGI,SF-268 CNS,> 100 µM
same,TGI,SF-295 CNS,> 100 µM
same,TGI,SF-539 CNS,> 100 µM
same,TGI,SK-MEL-2 melanoma,> 100 µM
same,TGI,SK-MEL-28 melanoma,> 100 µM
same,TGI,SK-MEL-5 melanoma,> 100 µM
same,TGI,SK-OV-3 ovarian,> 100 µM
same,TGI,SN12C renal,> 100 µM
same,TGI,SNB-19 CNS,> 100 µM
same,TGI,SNB-75 CNS,> 100 µM
same,TGI,SR leukemia,> 100 µM
same,TGI,SW-620 colon,> 100 µM
same,TGI,T-47D breast,> 100 µM
same,TGI,TK-10 renal,> 100 µM
same,TGI,U251 CNS,> 100 µM
same,TGI,UACC-257 melanoma,> 100 µM
same,TGI,UACC-62 melanoma,> 100 µM
same,TGI,UO-31 renal,> 100 µM

# Source: PubChem BioAssay (NCI)
